Results published in patent US20110300110A1, “ENAMINOCARBONYL COMPOUND/BENEFICIAL ORGANISM COMBINATIONS” (BAYER CROPSCIENCE AG, priority 2008, published 2011).

Assays:
Type in all cases: in vivo
[1] = test system: adult Nesidiocoris tenuis; experiment: Residual test with adult Nesidiocoris tenuis on tomato leaves
Experimental: Foliar treatment is carried out using compound (I-5) in a concentration of 150 g of active compound per hectare.
(§1) Drench treatment is carried out using compound (I-5) in a concentration of 10 mg of active compound per plant.
(§2) Foliar treatment with Karate Zeon CS100 as toxic control was carried out in a concentration of 12.5 g of active compound per hectare. The active compound in its respective formulation is brought to the required concentration by dilution with water.
(§3) Tomato plants cultivated in a greenhouse are treated with the respective active compound solutions. 1, 8, 15 and 22 days after the application, leaves are plucked from the test plants (5 samples per plot). The individual leaves are then mounted in test cages. 10 adult Nesidiocoris tenuis are added to each cage. The test cages are placed under controlled conditions in a climatized chamber. The kill of the insects is determined after 24, 48 and 72 hours of exposure.

[2] = test system: Myzus persicae; experiment: Larvae treatment Coccinella: infestation by Myzus persicae on Savoy cabbage; conditions: Coccinella larvae added
Experimental: (§4) Foliar treatment is carried out using compound (I-5) in a concentration of 75 g of active compound per hectare.
as §1
(§5) Foliar treatment with Karate Zeon CS100 as toxic control was carried out in a concentration of 12.5 g of active compound per hectare.
(§6) Beneficial species: Coccinella septempunctata L2 larvae Pest: Myzus persicae
(§7) Each experiment is carried out in 3 repetitions with in each case 2 pot cages with in each case 5 larvae.
(§8) For the experiment, Savoy cabbage plants are grown in pots having a diameter of 14 cm, placed in a breeding cage and infested thoroughly with Myzus persicae. Per experiment, 6 pots having a well-established aphid population are selected and the aphids are rated by estimation of their number. The plants are treated with the active compound solution of the appropriate concentration.
(§9) After the spray coating has dried on, a quartz sand layer of a thickness of about 1 cm is applied to the soil in the pot, and the pot cage is put over the plant. In each case 5 Coccinella larvae are then counted out, and in each case 5 specimen are added to the plants in the pot cage.
(§10) For each plant, at the beginning the Myzus persicae number is estimated at the appropriate points in time and the dead, dying and alive larvae are counted separately. All larvae, i.e. all larvae present on the plant and the surface of the quartz sand base, are counted.

[3] = test system: Macrolophus caliginosus nymphs; experiment: Residual test with nymphs of Macrolophus caliginosus on tomato leaves
Experimental: Foliar treatment is carried out using compound (I-5) in a concentration of 100 g of active compound per hectare.
Drench treatment is carried out using compound (I-5) in a concentration of 15 mg of active compound per plant.
as §2
as §3, with “16” for “15”, “23” for “22”, “Macrolophus caliginosus nymphs” for “adult Nesidiocoris tenuis”, “insects/larvae” for “insects”

[4] = test system: Metopolophium dirhodum; experiment: Treatment Anthocoris adult: infestation by Metopolophium dirhodum on maize; conditions: Anthocoris adults added
Experimental: as §4, §1, §5
(§11) Beneficial species: Anthocoris nemoralis adults Pest: Metopolophium dirhodum
(§12) Per experiment, 3 repetitions with in each case 2 pot cages with in each case 5 adults are carried out.
as §8, with “maize” for “Savoy cabbage”, “Metopolophium dirhodum.” for “Myzus persicae.”
(§13) After the spray coating has dried on, a quartz sand layer of a thickness of about 1 cm is applied to the soil in the pot, and the pot cage is put over the plant.
(§14) In each case 5 Anthocoris adults are then counted out, and in each case 5 specimen are added to the plants in the pot cage.
(§15) For each plant, at the beginning the Metopolophium dirhodum number is estimated at the appropriate points in time and the dead, dying and alive adults are counted separately. All adults, i.e. all adults present on the plant and the surface of the quartz sand base, are counted.

[5] = test system: Coccinella septempunctata L2 larvae; experiment: Larvae treatment Coccinella: kill of beneficial species larvae on Savoy cabbage
Experimental: as §4, §1, §5, §6, §7, §8, §9, §10

[6] = test system: Myzus persicae; experiment: Larvae treatment Aphidoletes: infestation by Myzus persicae on Savoy cabbage; conditions: Savoy cabbage with Aphidoletes larvae
Experimental: as §4, §1, §5
(§16) Beneficial species: Aphidoletes aphidimyza larvae Pest: Myzus persicae
(§17) Each experiment is carried out in 3 repetitions.
(§18) Per plot, 6 Savoy cabbage plants are placed into a planting-out tray and infested with Myzus persicae. About 1 week later, with a well-established Myzus population, the Aphidoletes aphidimyza are added. The application is carried after about 2 weeks once sufficient L2 stage Aphidoletes larvae are present (at least 20 larvae per tray).
(§19) In preparation for the application, the plants are reduced to 4 healthy green leaves.
(§20) Immediately prior to the application, the Myzus population and the number of Aphidoletes larvae are rated. For the application, all 6 plants of a plot are placed onto the turntable, and the amount of spray liquor for 0.666 m^2 is applied while turning slowly. After the application, the trays are placed into the standard cages.
(§21) For each plant, the number of Myzus persicae is estimated at the beginning at the appropriate points in time, and the larvae are counted accurately.

[7] = test system: Aphidoletes aphidimyza larvae; experiment: Larvae treatment Aphidoletes: kill of beneficial species larvae on Savoy cabbage
Experimental: as §4, §1, §5, §16, §17, §18, §19, §20, §21

[8] = test system: Anthocoris nemoralis adults; experiment: Treatment Anthocoris adult: kill of beneficial species adults on maize
Experimental: as §4, §1, §5, §11, §12
as §8, with “maize” for “Savoy cabbage”, “Metopolophium dirhodum.” for “Myzus persicae.”
as §13, §14, §15

[9] = 5 days after application, drench 10 mg a.i./plant
[10] = 5 days after application, foliar: (I-5) 75 g a.i./ha, Karate Zeon CS100 12.5 g a.i./ha
[11] = prior to application (baseline), drench 10 mg a.i./plant
[12] = prior to application (baseline), foliar: (I-5) 75 g a.i./ha, Karate Zeon CS100 12.5 g a.i./ha
[13] = 0 days after application, drench 10 mg a.i./plant
[14] = 0 days after application, foliar: (I-5) 75 g a.i./ha, Karate Zeon CS100 12.5 g a.i./ha
[15] = 1 day after application, drench 10 mg a.i./plant
[16] = 1 day after application, foliar: (I-5) 75 g a.i./ha, Karate Zeon CS100 12.5 g a.i./ha
[17] = 3 days after application, drench 10 mg a.i./plant
[18] = 3 days after application, foliar: (I-5) 75 g a.i./ha, Karate Zeon CS100 12.5 g a.i./ha

O=C1C=C(N(Cc2ccc(Cl)nc2)CC(F)F)CO1 [compound (I-5), 4-{[(6-chloropyrid-3-yl)methyl](2,2-difluoroethyl)amino}furan-2(5H)-one]
Activity against adult Nesidiocoris tenuis on tomato [% kill according to Schneider-Orelli] ([1]; leaves plucked 1 day after application, drench 10 mg a.i./plant): 4.9%
Activity against adult Nesidiocoris tenuis on tomato [% kill according to Schneider-Orelli] ([1]; leaves plucked 1 day after application, foliar: (I-5) 150 g a.i./ha, Karate Zeon CS100 12.5 g a.i./ha): 91.1%
Activity against adult Nesidiocoris tenuis on tomato [% kill according to Schneider-Orelli] ([1]; leaves plucked 8 days after application, drench 10 mg a.i./plant): 47.3%
Activity against adult Nesidiocoris tenuis on tomato [% kill according to Schneider-Orelli] ([1]; leaves plucked 8 days after application, foliar: (I-5) 150 g a.i./ha, Karate Zeon CS100 12.5 g a.i./ha): 81.3%
Activity against adult Nesidiocoris tenuis on tomato [% kill according to Schneider-Orelli] ([1]; leaves plucked 15 days after application, drench 10 mg a.i./plant): 24.4%
Activity against adult Nesidiocoris tenuis on tomato [% kill according to Schneider-Orelli] ([1]; leaves plucked 15 days after application, foliar: (I-5) 150 g a.i./ha, Karate Zeon CS100 12.5 g a.i./ha): 32.1%
Activity against adult Nesidiocoris tenuis on tomato [% kill according to Schneider-Orelli] ([1]; leaves plucked 22 days after application, drench 10 mg a.i./plant): 66%
Activity against adult Nesidiocoris tenuis on tomato [% kill according to Schneider-Orelli] ([1]; leaves plucked 22 days after application, foliar: (I-5) 150 g a.i./ha, Karate Zeon CS100 12.5 g a.i./ha): 45.8%
Infestation by Myzus persicae (number per plant) [2, 9]: 165 number per plant
Infestation by Myzus persicae (number per plant) [2, 10]: 0 number per plant
Infestation by Myzus persicae (number per plant) [2, 11]: 552 number per plant
Infestation by Myzus persicae (number per plant) [2, 12]: 602 number per plant
Activity against nymphs of Macrolophus caliginosus on tomato [% kill according to Schneider-Orelli] ([3]; leaves plucked 1 day after application, drench 15 mg a.i./plant): 0%
Activity against nymphs of Macrolophus caliginosus on tomato [% kill according to Schneider-Orelli] ([3]; leaves plucked 1 day after application, foliar: (I-5) 100 g a.i./ha, Karate Zeon CS100 12.5 g a.i./ha): 52.2%
Activity against nymphs of Macrolophus caliginosus on tomato [% kill according to Schneider-Orelli] ([3]; leaves plucked 8 days after application, drench 15 mg a.i./plant): 65.4%
Activity against nymphs of Macrolophus caliginosus on tomato [% kill according to Schneider-Orelli] ([3]; leaves plucked 8 days after application, foliar: (I-5) 100 g a.i./ha, Karate Zeon CS100 12.5 g a.i./ha): 72.2%
Activity against nymphs of Macrolophus caliginosus on tomato [% kill according to Schneider-Orelli] ([3]; leaves plucked 16 days after application, drench 15 mg a.i./plant): 35.7%
Activity against nymphs of Macrolophus caliginosus on tomato [% kill according to Schneider-Orelli] ([3]; leaves plucked 16 days after application, foliar: (I-5) 100 g a.i./ha, Karate Zeon CS100 12.5 g a.i./ha): 21.7%
Activity against nymphs of Macrolophus caliginosus on tomato [% kill according to Schneider-Orelli] ([3]; leaves plucked 23 days after application, drench 15 mg a.i./plant): 23.6%
Activity against nymphs of Macrolophus caliginosus on tomato [% kill according to Schneider-Orelli] ([3]; leaves plucked 23 days after application, foliar: (I-5) 100 g a.i./ha, Karate Zeon CS100 12.5 g a.i./ha): 41.8%
Infestation by Metopolophium dirhodum (number per plant) [4, 9]: 2.5 number per plant
Infestation by Metopolophium dirhodum (number per plant) [4, 10]: 0 number per plant
Infestation by Metopolophium dirhodum (number per plant) ([4]; drench 10 mg a.i./plant): 85 number per plant
Infestation by Metopolophium dirhodum (number per plant) ([4]; foliar: (I-5) 75 g a.i./ha, Karate Zeon CS100 12.5 g a.i./ha): 78 number per plant
kill of Coccinella septempunctata larvae [% Abbott] [5, 13]: 0%
kill of Coccinella septempunctata larvae [% Abbott] [5, 14]: 0%
kill of Coccinella septempunctata larvae [% Abbott] [5, 15]: 1.7%
kill of Coccinella septempunctata larvae [% Abbott] [5, 16]: 3.3%
kill of Coccinella septempunctata larvae [% Abbott] [5, 17]: 1.7%
kill of Coccinella septempunctata larvae [% Abbott] [5, 18]: 1.7%
kill of Coccinella septempunctata larvae [% Abbott] [5, 9]: 3.4%
kill of Coccinella septempunctata larvae [% Abbott] [5, 10]: 6.9%
Infestation by Myzus persicae (number per plant) [6, 9]: 19.4 number per plant
Infestation by Myzus persicae (number per plant) [6, 10]: 0 number per plant
Infestation by Myzus persicae (number per plant) [6, 11]: 367 number per plant
Infestation by Myzus persicae (number per plant) [6, 12]: 344 number per plant
kill of Aphidoteles aphidimyza larvae [% Abbott] [7, 13]: 0%
kill of Aphidoteles aphidimyza larvae [% Abbott] [7, 14]: 0%
kill of Aphidoteles aphidimyza larvae [% Abbott] [7, 15]: 3.2%
kill of Aphidoteles aphidimyza larvae [% Abbott] [7, 16]: 10.2%
kill of Aphidoteles aphidimyza larvae [% Abbott] [7, 17]: 4.3%
kill of Aphidoteles aphidimyza larvae [% Abbott] [7, 18]: 10.5%
kill of Aphidoteles aphidimyza larvae [% Abbott] [7, 9]: 7.8%
kill of Aphidoteles aphidimyza larvae [% Abbott] [7, 10]: 15.2%
kill of adult Anthocoris nemoralis [% Abbott] [8, 13]: 0%
kill of adult Anthocoris nemoralis [% Abbott] [8, 14]: 0%
kill of adult Anthocoris nemoralis [% Abbott] [8, 15]: 0%
kill of adult Anthocoris nemoralis [% Abbott] [8, 16]: 0%
kill of adult Anthocoris nemoralis [% Abbott] [8, 17]: 1.7%
kill of adult Anthocoris nemoralis [% Abbott] [8, 18]: 3.3%
kill of adult Anthocoris nemoralis [% Abbott] [8, 9]: 3.3%
kill of adult Anthocoris nemoralis [% Abbott] [8, 10]: 6.7%
